Values joined by “and” are separate entries in the source; they are usually repeats but may differ in a detail not shown here. Identical values can stand only once.
Columns and labels:
Assay in all cases: Enzyme Assay
Conditions in all cases: pH 8
[1] = molecular target: Chymotrypsin-like elastase family member 1 (Pig, UniProt P00772)
Protocol: (§1) Data scanning time was set to the 1st and 61st minute after the reaction start. Rutin, esculin, phloridzin and their esters were initially solubilized at a concentration of 10 mM in dimethyl sulphoxide (DMSO) and subsequently incorporated in the reaction mixture to final concentrations in the range of 1-50 μM. Samples were run in triplicate in 96-well plates by MRX microplate reader. Each experiment was performed in triplicate.

[2] = molecular target: Prothrombin (Bos taurus, UniProt P00735)
Protocol: as §1

[3] = molecular target: T1, Serine protease 1 (Bos taurus, UniProt P00760)
T1 sequence (P00760 whole entry): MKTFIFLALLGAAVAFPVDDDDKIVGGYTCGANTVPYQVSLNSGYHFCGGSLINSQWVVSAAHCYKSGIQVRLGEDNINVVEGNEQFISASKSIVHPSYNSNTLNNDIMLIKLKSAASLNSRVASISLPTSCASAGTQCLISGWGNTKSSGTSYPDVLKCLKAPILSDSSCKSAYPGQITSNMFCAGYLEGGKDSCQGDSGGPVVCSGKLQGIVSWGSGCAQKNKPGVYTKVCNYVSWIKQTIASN
Protocol: as §1

[4] = molecular target: Urokinase-type plasminogen activator (Homo sapiens, UniProt P00749)
Protocol: as §1

Sequence of Chymotrypsin-like elastase family member 1 (P00772 whole entry): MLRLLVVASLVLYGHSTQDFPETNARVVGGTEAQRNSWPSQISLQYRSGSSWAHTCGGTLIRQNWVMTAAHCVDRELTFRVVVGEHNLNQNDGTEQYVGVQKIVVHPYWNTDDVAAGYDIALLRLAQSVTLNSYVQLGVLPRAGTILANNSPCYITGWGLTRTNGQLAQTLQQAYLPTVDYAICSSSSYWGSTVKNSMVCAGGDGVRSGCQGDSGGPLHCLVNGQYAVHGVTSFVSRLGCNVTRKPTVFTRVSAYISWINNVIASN

SMILES | IC50 [1] [µM] | IC50 [2] [µM] | IC50 [3] [µM] | IC50 [4]
N=C(N)Nc1ccc(C(=O)O)cc1 [4-Guanidinobenzoate] | 500 | 400 | 450 | 20 µM
CCCCCCCCCCCC(=O)OC1C(C)OC(OCC2OC(Oc3c(-c4ccc(O)c(O)c4)oc4cc(O)cc(O)c4c3=O)C(O)C(O)C2O)C(O)C1O (stereo not given) [Rutin laurate] | > 500 | 14 | 90 | 50 µM
CCCC(=O)OC1C(C)OC(OCC2OC(Oc3c(-c4ccc(O)c(O)c4)oc4cc(O)cc(O)c4c3=O)C(O)C(O)C2O)C(O)C1O (stereo not given) [Rutin butyrate] | > 500 | 22 | > 500 | 8 µM
CCCCCCCCCCCCCCCC(=O)OCC1OC(Oc2cc3ccc(=O)oc3cc2O)C(O)C(O)C1O (stereo not given) [Esculin palmitate] | 30 | 54 | 210 | 100 µM
CC/C=C\C/C=C\C/C=C\CCCCCCCC(=O)OC1C(C)OC(OCC2OC(Oc3c(-c4ccc(O)c(O)c4)oc4cc(O)cc(O)c4c3=O)C(O)C(O)C2O)C(O)C1O (stereo not given) [Rutin linolenate] | > 500 | 7 | 50 | 20 µM
CCCCCCCC(=O)OC1C(C)OC(OCC2OC(Oc3c(-c4ccc(O)c(O)c4)oc4cc(O)cc(O)c4c3=O)C(O)C(O)C2O)C(O)C1O (stereo not given) [Rutin caprylate] | > 500 | 25 | > 500 | 32 µM
CCCCCCCCCCCCCCCCCC(=O)OC1C(C)OC(OCC2OC(Oc3c(-c4ccc(O)c(O)c4)oc4cc(O)cc(O)c4c3=O)C(O)C(O)C2O)C(O)C1O (stereo not given) [Rutin stearate] | > 500 | 8 | 40 | 15 µM
CCCCCCCC/C=C\CCCCCCCC(=O)OC1C(C)OC(OCC2OC(Oc3c(-c4ccc(O)c(O)c4)oc4cc(O)cc(O)c4c3=O)C(O)C(O)C2O)C(O)C1O (stereo not given) [Rutin oleate] | > 500 | 9 | 60 | 25 µM
O=c1ccc2cc(OC3OC(CO)C(O)C(O)C3O)c(O)cc2o1 (stereo not given) [Esculin] | 100 | 250 | 150 | 25 µM
O=c1c(O)c(-c2ccc(O)c(O)c2)oc2cc(O)cc(O)c12 [2-(3,4-dihydroxyphenyl)-3,5,7-trihydroxy-chromone;hydrate] |  |  |  | 20 µM
CCCCCCCCCCCCCCCCCC(=O)OCC1OC(Oc2cc(O)cc(O)c2C(=O)CCc2ccc(O)cc2)C(O)C(O)C1O (stereo not given) [Phloridzin stearate] | > 500 | 65 | 215 | 13 µM
CCCCCCCCCCCC(=O)OCC1OC(Oc2cc3ccc(=O)oc3cc2O)C(O)C(O)C1O (stereo not given) [Esculin laurate] | 20 | 60 | 350 | 100 µM
CCCCCCCCCCCCCC(=O)OC1C(C)OC(OCC2OC(Oc3c(-c4ccc(O)c(O)c4)oc4cc(O)cc(O)c4c3=O)C(O)C(O)C2O)C(O)C1O (stereo not given) [Rutin myristate] | > 500 | 10 | 130 | 15 µM
CCCCCC(=O)OC1C(C)OC(OCC2OC(Oc3c(-c4ccc(O)c(O)c4)oc4cc(O)cc(O)c4c3=O)C(O)C(O)C2O)C(O)C1O (stereo not given) [Rutin caproate] | > 500 | 32 | > 500 | 14 µM and 20 µM
CCCCCCCCCCCCCCCC(=O)OC1C(C)OC(OCC2OC(Oc3c(-c4ccc(O)c(O)c4)oc4cc(O)cc(O)c4c3=O)C(O)C(O)C2O)C(O)C1O (stereo not given) [Rutin palmitate] | > 500 | 3 | 40 | 15 µM
CCCCCCCCCCCC(=O)OCC1OC(Oc2cc(O)cc(O)c2C(=O)CCc2ccc(O)cc2)C(O)C(O)C1O (stereo not given) [Phloridzin laurate] | > 500 | 70 | 55 | 9 µM
CC1OC(OCC2OC(Oc3c(-c4ccc(O)c(O)c4)oc4cc(O)cc(O)c4c3=O)C(O)C(O)C2O)C(O)C(O)C1O (stereo not given) [Rutin] | 100 | 25 | 40 | 6 µM
CCCCCCCCCCCCCCCCCC(=O)OCC1OC(Oc2cc3ccc(=O)oc3cc2O)C(O)C(O)C1O (stereo not given) [Esculin stearate] | 60 | 52 | 50 | 89 µM
CCCCCCCCCCCCCCCC(=O)OCC1OC(Oc2cc(O)cc(O)c2C(=O)CCc2ccc(O)cc2)C(O)C(O)C1O (stereo not given) [Phloridzin palmitate] | > 500 | 75 | 60 | 18 µM
CCCCCCCCCCCCCC(=O)OCC1OC(Oc2cc3ccc(=O)oc3cc2O)C(O)C(O)C1O (stereo not given) [Esculin myristate] | 25 | 54 | 120 | 100 µM
CCCCCCCCCCCCCC(=O)OCC1OC(Oc2cc(O)cc(O)c2C(=O)CCc2ccc(O)cc2)C(O)C(O)C1O (stereo not given) [Phloridzin myristate] | > 500 | 75 | 65 | 33 µM
O=C(CCc1ccc(O)cc1)c1c(O)cc(O)cc1OC1OC(CO)C(O)C(O)C1O (stereo not given) [Phloridzin] | 100 | 320 | 90 | 80 µM
